In US20130310256A1, “HERBICIDAL COMPOSITIONS COMPRISING 4-AMINO-3-CHLORO-5-FLUORO-6-(4-CHLORO-2-FLUORO-3-METHOXYPHENYL) PYRIDINE-2-CARBOXYLIC ACID OR A DERIVATIVE THEREOF AND VLCFA AND LIPID SYNTHESIS INHIBITING HERBICIDES” (DOW AGROSCIENCES LLC, priority 2008, published 2013):

How the values were obtained:
[1] = tested on: ECHOR; assay: Example II: in-water applied weed control, transplanted paddy rice, greenhouse; format: in vivo, Echinochloa oryzoides (Ard.) Fritsch (early watergrass)
Method: (§1) Weed seeds or nutlets of the desired test plant species were planted in puddled soil (mud) prepared by mixing a shredded, non-sterilized mineral soil (50.5 percent silt, 25.5 percent clay, and 24 percent sand, with a pH of about 7.6 and an organic matter content of about 2.9 percent) and water at a 1:1 volumetric ratio. The prepared mud was dispensed in 365 mL aliquots into 16-ounce (oz.) non-perforated plastic pots with a surface area of 86.59 square centimeters (cm^2) leaving a headspace of 3 centimeters (cm) in each pot. Mud was allowed to dry overnight prior to planting or transplanting. Rice seeds were planted in Sun Gro MetroMix® 306 planting mixture, which typically has a pH of 6.0 to 6.8 and an organic matter content of about 30 percent, in plastic plug trays. Seedlings at the second or third leaf stage of growth were transplanted into 840 mL of mud contained in 32-oz. non-perforated plastic pots with a surface area of 86.59 cm^2 4 days prior to herbicide application. The paddy was created by filling the headspace of the pots with 2.5 to 3 cm of water. When required to ensure good germination and healthy plants, a fungicide treatment and/or other chemical or physical treatment was applied. The plants were grown for 4-22 days in a greenhouse with an approximate 14 hr photoperiod which was maintained at about 29′C during the day and 26° C. during the night. Nutrients were added as Osmocote® (19:6:12, N:P:K+ minor nutrients) at 2 g per 16-oz. pot and 4 g per 32-oz. pot. Water was added on a regular basis to maintain the paddy flood, and supplemental lighting was provided with overhead metal halide 1000-Watt lamps as necessary. The plants were employed for testing when they reached the first through fourth true leaf stage.
(§2) Treatments consisted of the acid or esters of 4-amino-3-chloro-5-fluoro-6-(4-chloro-2-fluoro-3-methoxy-phenyl)pyridine-2-carboxylic acid (compound A) each formulated as an SC (suspension concentrate) and various herbicidal components alone and in combination. Forms of compound A were applied on an acid equivalent basis.
(§3) The herbicidal components were applied on an active ingredient basis and included very long chain fatty acid (VLCFA) synthesis-inhibiting and fatty acid/lipid synthesis-inhibiting herbicides acetochlor (technical grade material), acetochlor+dichlormid formulateded as Topnotch®, pretilachlor (technical grade material), butachlor formulated as Butachlor EC, fentrazamide formulated as Fentrazamide EC, thiobencarb formulated as Bolero® 8EC, cafenstrole formulated as Himeadow® WP or Lapost® Flowable, benfuresate formulated as Full Shot®, anilofos (technical grade material), mefenacet (technical grade material), molinate (technical grade material), and thenylchlor (technical grade material).
(§4) Treatment requirements for each compound or herbicidal component were calculated based upon the rates being tested, the concentration of active ingredient or acid equivalent in the formulation, an application volume of 2 mL per component per pot, and an application area of 86.59 cm^2 per pot.
(§5) For formulated compounds, a measured amount was placed in an individual 100 or 200 mL glass vial and was dissolved in a volume of 1.25% (v/v) Agri-Dex® crop oil concentrate to obtain application solutions.
(§6) For technical grade compounds, a weighed amount was placed in an individual 100 to 200 mL glass vial and was dissolved in a volume of acetone to obtain concentrated stock solutions. […] The concentrated stock solutions obtained were diluted with an equivalent volume of an aqueous mixture containing 2.5% (v/v) crop oil concentrate so that the final application solutions contained 1.25% (v/v) crop oil concentrate.
(§7) Applications were made by injecting with a pipetter appropriate amounts of the application solutions, individually and sequentially, into the aqueous layer of the paddy. Control plants were treated in the same manner with the solvent blank. […]

[2] = tested on: CYPRO; assay: as above; format: in vivo, Cyperus rotundus L. (purple nutsedge); details: 20 DAA
Method: as §1, §2, §3, §4, §5, §6, §7

[3] = tested on: ECHCO; assay: Example I: postemergence foliar-applied weed control, greenhouse; format: in vivo, Echinochloa colona (L.) Link (junglerice); details: 20 DAA
Description: (§8) Seeds or nutlets of the desired test plant species were planted in a soil matrix prepared by mixing a loam or sandy loam soil (e.g., 28.6 percent silt, 18.8 percent clay, and 52.6 percent sand, with a pH of about 5.8 and an organic matter content of about 1.8 percent) and calcareous grit in an 80 to 20 ratio. The soil matrix was contained in plastic pots with a volume of 1 quart and a surface area of 83.6 square centimeters (cm^2). When required to ensure good germination and healthy plants, a fungicide treatment and/or other chemical or physical treatment was applied. The plants were grown for 8-22 days in a greenhouse with an approximate 14 hr photoperiod which was maintained at about 29° C. during the day and 26° C. during the night. Nutrients (Peters Excel® 15-5-15 5-Ca 2-Mg and iron chelate) were applied in the irrigation solution as needed and water was added on a regular basis. Supplemental lighting was provided with overhead metal halide 1000-Watt lamps as necessary. The plants were employed for testing when they reached the first through fourth true leaf stage.
as §2, with “(Compound A),” for “(compound A)”, “concentrate),” for “concentrate)”
(§9) Other herbicidal components were applied on an active ingredient basis and included very long chain fatty acid (VLCFA) synthesis-inhibiting and fatty acid/lipid synthesis-inhibiting herbicides acetochlor (technical grade material), acetochlor+dichlormid formulated as Topnotch®, pretilachlor (technical grade material), butachlor formulated as Butachlor EC, fentrazamide formulated as Fentrazamide EC, thiobencarb formulated as Bolero® 8EC, cafenstrole formulated as Himeadow® WP or Lapost® Flowable, benfuresate formulated as Full Shot®, dimethenamid-P formulated as Outlook®, indanofan (technical grade material), flufenacet formulated as Define® DF, mefenacet (technical grade material), S-metolachlor formulated as Dual® II Magnum, pethoxamid formulated as Successor® 600, and pyroxasulfone (technical grade material).
(§10) Treatment requirements were calculated based upon the rates being tested, the concentration of active ingredient or acid equivalent in the formulation, and a 12 mL application volume at a rate of 187 L/ha.
(§11) For treatments comprised of formulated compounds, measured amounts of compounds were placed individually in 25 mL glass vials and diluted in a volume of 1.25% (v/v) Agri-Dex® crop oil concentrated to obtain 12× stock solutions. […] Application solutions were prepared by adding an appropriate amount of each stock solution (e.g., 1 mL) and diluted to the appropriate final concentrations with the addition of 10 mL of an aqueous mixture of 1.25% (v/v) crop oil concentrate so that the final spray solutions contained 1.25+/−0.05% (v/v) crop oil concentrate.
(§12) For treatments comprised of technical compounds, weighed amounts can be placed individually in 25 mL glass vials and dissolved in a volume of 97:3 v/v acetone/DMSO to obtain 12× stock solutions. […] Application solutions can be prepared by adding an appropriate amount of each stock solution (e.g., 1 mL) and diluted to the appropriate final concentrations with the addition of 10 mL of an aqueous mixture of 1.5% (v/v) crop oil concentrate so that the final spray solutions contain 1.25% (v/v) crop oil concentrate. When technical materials are used, the concentrated stock solutions can be added to the spray solutions so that the final acetone and DMSO concentrations of the application solutions are […], respectively. […]

[4] = tested on: ISCRU; assay: as above; format: in vivo, Ischaemum rugosum Salisb. (saramollagrass); details: 21 DAA
Description: as §8
as §2, with “(Compound A),” for “(compound A)”, “concentrate),” for “concentrate)”
as §9, §10
For treatments comprised of formulated compounds, measured amounts of compounds were placed individually in 25 mL glass vials and diluted in a volume of 1.25% (v/v) Agri-Dex® crop oil concentrated to obtain 12× stock solutions. […]

[5] = tested on: DIGSA; assay: as above; format: in vivo, Digitaria sanguinalis (L.) Scop. (large crabgrass); details: 20 DAA; 560 gai/ha
Description: as §8
as §2, with “(Compound A),” for “(compound A)”, “concentrate),” for “concentrate)”
as §9, §10, §11, §12

[6] = tested on: CYPIR; assay: as above; format: in vivo, Cyperus iria L. (rice flatsedge); details: 20 DAA
Description: as §8
as §2, with “(Compound A),” for “(compound A)”, “concentrate),” for “concentrate)”
as §9, §10, §11, §12

[7] = tested on: PAPRH; assay: Example III: post-emergence foliar-applied weed control in cereal crops, greenhouse; format: in vivo, Papaver rhoeas L.; details: 21 DAA
Method: (§13) Seeds of the desired test plant species were planted in Sun Gro MetroMix® 306 planting mixture, which typically has a pH of 6.0 to 6.8 and an organic matter content of about 30 percent, in plastic pots with a surface area of 103.2 square centimeters (cm^2). When required to ensure good germination and healthy plants, a fungicide treatment and/or other chemical or physical treatment was applied. The plants were grown for 7-36 days in a greenhouse with an approximate 14 hour photoperiod which was maintained at about 18° C. during the day and 17° C. during the night. Nutrients and water were added on a regular basis and supplemental lighting was provided with overhead metal halide 1000-Watt lamps as necessary. The plants were employed for testing when they reached the second or third true leaf stage.
(§14) Treatments consisted of the benzyl ester of 4-amino-3-chloro-5-fluoro-6-(4-chloro-2-fluoro-3-methoxy-phenyl)pyridine-2-carboxylic acid (Compound A), formulated as an SC (suspension concentrate), and a second cereal herbicide alone and in combination.
(§15) Measured aliquots of the benzyl ester of 4-amino-3-chloro-5-fluoro-6-(4-chloro-2-fluoro-3-methoxy-phenyl)pyridine-2-carboxylic acid (Compound A) were placed in 25 milliliter (mL) glass vials and diluted in a volume of 1.25% (v/v) Agri-dex crop oil concentrated to obtain stock solutions. Compound requirements are based upon a 12 mL application volume at a rate of 187 liters per hectare (L/ha). Spray solutions of the second cereal herbicide and experimental compound mixtures were prepared by adding the stock solutions to the appropriate amount of dilution solution to form 12 mL spray solution with active ingredients in two- and three-way combinations. Formulated compounds were applied to the plant material with an overhead Mandel track sprayer equipped with an 8002E nozzle calibrated to deliver 187 L/ha over an application area of 0.503 square meters (m^2) at a spray height of 18 inches (46 cm) above average plant canopy. Control plants were sprayed in the same manner with the solvent blank.
(§16) The treated plants and control plants were placed in a greenhouse as described above and watered by sub-irrigation to prevent wash-off of the test compounds. After 20-22 days, the condition of the test plants as compared with that of the control plants was determined visually and scored on a scale of 0 to 100 percent where 0 corresponds to no injury and 100 corresponds to complete kill.
(§17) Colby's equation was used to determine the herbicidal effects expected from the mixtures (Colby, S. R. 1967. Calculation of the synergistic and antagonistic response of herbicide combinations. Weeds 15:20-22.).

[8] = tested on: STEME; assay: as above; format: in vivo, Stellaria media (L.) Vill.; details: 21 DAA
Method: as §13, §14, §15, §16, §17

[9] = tested on: SINAR; assay: as above; format: in vivo, Sinapis arvensis L.; details: 21 DAA
Method: as §13, §14, §15, §16, §17

[10] = tested on: KCHSC; assay: as above; format: in vivo, Kochia scoparia (L.) Schrad.; details: 21 DAA
Method: as §13, §14, §15, §16, §17

[11] = tested on: CHEAL; assay: as above; format: in vivo, Chenopodium album L.; details: 21 DAA
Method: as §13, §14, §15, §16, §17

[12] = tested on: GALAP; assay: as above; format: in vivo, Galium aparine L.; details: 21 DAA
Method: as §13, §14, §15, §16, §17

[13] = tested on: SASKR; assay: as above; format: in vivo, Salsola tragus L.; details: 21 DAA
Method: as §13, §14, §15, §16, §17

`CCN(CC)C(=O)SCc1ccc(Cl)cc1` [Thiobencarb, S-[(4-chlorophenyl)methyl]N,N-diethylcarbamothioate] was tested, and the “Visual Weed Control (%) - 20 DAA ECHOR Obs” value ([1]; 1120 gai/ha) was 60%, the pest or weed control at 1120 g/ha ([1]; Echinochloa oryzoides, 480 h, 1120 gai/ha, 20 DAA, read-out: Visual Weed Control ECHOR Obs) was 60% and the pest or weed control at 2240 g/ha ([1]; Echinochloa oryzoides, 480 h, 2240 gai/ha, 20 DAA, read-out: Visual Weed Control ECHOR Obs) was 90%. The “Visual Weed Control CYPRO Obs” value ([2]; 1120 gai/ha) was 0%, the “Visual Weed Control CYPRO Obs” value ([2]; 2240 gai/ha) was 0% and the “Visual Weed Control Obs” value ([3]; 560 gai/ha) was 45%. The “Visual Weed Control Obs” value ([3]; 1120 gai/ha) was 40%, the “Visual Weed Control Obs” value ([4]; 1120 gai/ha) was 0% and the “Visual Weed Control Obs” value ([4]; 2240 gai/ha) was 0%. The “Visual Weed Control Obs” value [5] was 20%, the “Visual Weed Control Obs” value ([6]; 560 gai/ha) was 0% and the “Visual Weed Control Obs” value ([6]; 1120 gai/ha) was 0%. The “Visual Weed Control Obs” value ([6]; 2240 gai/ha) was 0%.
In the case of `CCCN(CCC)C(=O)SCc1ccccc1` [Prosulfocarb, S-(phenylmethyl) dipropylcarbamothioate], the “Visual Weed Control PAPRH Obs” value ([7]; 1000 gai/ha) is reported as 5%, the “Visual Weed Control PAPRH Obs” value ([7]; 2000 gai/ha) is reported as 10% and the “Visual Weed Control PAPRH Obs” value ([7]; 4000 gai/ha) is reported as 13%. For the same molecule, the “Visual Weed Control STEME Obs” value ([8]; 1000 gai/ha) was 0%, the “Visual Weed Control STEME Obs” value ([8]; 2000 gai/ha) was 10% and the “Visual Weed Control STEME Obs” value ([8]; 4000 gai/ha) was 73%. The “Visual Weed Control SINAR Obs” value ([9]; 1000 gai/ha) was 13%, the “Visual Weed Control SINAR Obs” value ([9]; 2000 gai/ha) was 18% and the “Visual Weed Control KCHSC Obs” value ([10]; 1000 gai/ha) was 10%. For the same molecule, the “Visual Weed Control KCHSC Obs” value ([10]; 2000 gai/ha) was 15%, the “Visual Weed Control KCHSC Obs” value ([10]; 4000 gai/ha) was 75% and the “Visual Weed Control CHEAL Obs” value ([11]; 1000 gai/ha) was 10%. For the same molecule, the “Visual Weed Control CHEAL Obs” value ([11]; 2000 gai/ha) was 15%, the “Visual Weed Control GALAP Obs” value ([12]; 1000 gai/ha) was 15% and the “Visual Weed Control GALAP Obs” value ([12]; 2000 gai/ha) was 40%. The “Visual Weed Control GALAP Obs” value ([12]; 4000 gai/ha) was 67%, the “Visual Weed Control SASKR Obs” value ([13]; 1000 gai/ha) was 5% and the “Visual Weed Control SASKR Obs” value ([13]; 2000 gai/ha) was 5%. The “Visual Weed Control SASKR Obs” value ([13]; 4000 gai/ha) was 63%.
